Test results published in patent US8834423B2, “Dissolvable microneedle arrays for transdermal delivery to human skin” (University of Pittsburgh—of the Commonwealth System of …, priority 2009, dated 2014).

Tested on: epidermal cells
Conditions: 5 mg/g of CMC, pyramidal array applied 5 minutes, 72 hours of exposure
Protocol: This is a therapeutically relevant concentration based on the area of skin targeted, yet well below levels associated with systemic toxicities. […] Arrays and residual material were removed 5 minutes after application, and after 72 hours of exposure, culture living skin explants were cryo-sectioned and fixed.

O=P1(N(CCCl)CCCl)NCCCO1 (stereo not shown) [CYTOXAN, cyclophosphamide]
apoptosis (TUNEL) in skin sections: extensive apoptosis of epidermal cells
